Reference: patent US12077503B2, “Substituted cyclic amides and their use as herbicides” (FMC CORPORATION, priority 2015, dated 2024)
Values belong to the compound of their own block, whether it stands above or below them.

Assays:
[1] = system: Kochia (Kochia scoparia); assay: Test A preemergence; format: in vivo; settings: Bassia scoparia, pre-emergence, 240 h, preemergence, 0 to 100 scale where 0 is no effect and 100 is complete control, read-out: Kochia plant response rating; for pest or weed control at 125 g/ha: 125 g ai/ha, approx. 10 d; for pest or weed control at 500 g/ha: 500 g ai/ha
In short: (§1)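 Each rating is a visual injury score from 0 to 100 given about 10 d after treatment, judged against untreated controls kept alongside in the greenhouse. In loam soil–sand blend, seeds got a preemergence directed soil spray, while postemergence plants were 2 to 10 cm tall at spraying.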

[2] = system: giant foxtail (Setaria faberii); assay: Test A preemergence; format: in vivo; settings: Setaria faberi, pre-emergence, 240 h, preemergence, 0 to 100 scale where 0 is no effect and 100 is complete control, read-out: Foxtail, Giant plant response rating; for pest or weed control at 125 g/ha: 125 g ai/ha, approx. 10 d; for pest or weed control at 500 g/ha: 500 g ai/ha
In short: as §1

[3] = system: ryegrass, Italian (Italian ryegrass, Lolium multiflorum); assay: Test A preemergence; format: in vivo; settings: Lolium multiflorum, pre-emergence, 240 h, preemergence, 0 to 100 scale where 0 is no effect and 100 is complete control, read-out: Ryegrass, Italian plant response rating; for pest or weed control at 125 g/ha: 125 g ai/ha, approx. 10 d; for pest or weed control at 500 g/ha: 500 g ai/ha
In short: as §1

[4] = system: pigweed (Amaranthus retroflexus); assay: Test A preemergence; format: in vivo; settings: Amaranthus retroflexus, pre-emergence, 240 h, preemergence, 0 to 100 scale where 0 is no effect and 100 is complete control, read-out: Pigweed plant response rating; for pest or weed control at 125 g/ha: 125 g ai/ha, approx. 10 d; for pest or weed control at 500 g/ha: 500 g ai/ha
[5] = system: barnyardgrass (Echinochloa crus-galli); assay: Test A preemergence; format: in vivo; settings: Echinochloa crus-galli, pre-emergence, 240 h, preemergence, 0 to 100 scale where 0 is no effect and 100 is complete control, read-out: Barnyardgrass plant response rating; for pest or weed control at 125 g/ha: 125 g ai/ha, approx. 10 d; for pest or weed control at 500 g/ha: 500 g ai/ha
In short: as §1

melting point: 119 to 123 °C
SMILES: O=C1NC[C@H](c2ccc(F)c(OC(F)(F)C(F)F)c2)[C@H]1C(=O)Nc1ccccc1F [Compound 1133]
pest or weed control at 125 g/ha [1]: 60%
pest or weed control at 500 g/ha [1]: 100%
pest or weed control at 125 g/ha [2]: 90%
pest or weed control at 500 g/ha [2]: 90%
pest or weed control at 125 g/ha [3]: 20%
pest or weed control at 500 g/ha [3]: 30%
pest or weed control at 125 g/ha [4]: 30%
pest or weed control at 500 g/ha [4]: 70%
pest or weed control at 125 g/ha [5]: 90%
pest or weed control at 500 g/ha [5]: 90%

melting point: 117 to 121 °C
SMILES: CCc1cc([C@H]2CN(C)C(=O)[C@@H]2C(=O)Nc2ccccc2F)cs1 [Compound 1156]
pest or weed control at 125 g/ha [1]: 70%
pest or weed control at 500 g/ha [1]: 80%
pest or weed control at 125 g/ha [2]: 90%
pest or weed control at 500 g/ha [2]: 100%
pest or weed control at 125 g/ha [3]: 20%
pest or weed control at 500 g/ha [3]: 30%
pest or weed control at 125 g/ha [4]: 0%
pest or weed control at 500 g/ha [4]: 20%
pest or weed control at 125 g/ha [5]: 90%
pest or weed control at 500 g/ha [5]: 90%

melting point: 141 to 143 °C
SMILES: O=C1NCC[C@H](c2cccc(Cl)c2)[C@H]1C(=O)Nc1ccccc1F [Compound 1159]
pest or weed control at 125 g/ha [1]: 0%
pest or weed control at 500 g/ha [1]: 30%
pest or weed control at 125 g/ha [2]: 70%
pest or weed control at 500 g/ha [2]: 90%
pest or weed control at 125 g/ha [3]: 0%
pest or weed control at 500 g/ha [3]: 0%
pest or weed control at 125 g/ha [4]: 0%
pest or weed control at 500 g/ha [4]: 0%
pest or weed control at 125 g/ha [5]: 60%
pest or weed control at 500 g/ha [5]: 90%

melting point: 139.5 to 153 °C
SMILES: O=C1NC[C@H](c2nccs2)[C@H]1C(=O)Nc1cccc(F)c1F [Compound 1182]
pest or weed control at 125 g/ha [1]: 0%
pest or weed control at 500 g/ha [1]: 0%
pest or weed control at 125 g/ha [2]: 0%
pest or weed control at 500 g/ha [2]: 0%
pest or weed control at 125 g/ha [3]: 0%
pest or weed control at 500 g/ha [3]: 0%
pest or weed control at 125 g/ha [4]: 0%
pest or weed control at 500 g/ha [4]: 0%
pest or weed control at 125 g/ha [5]: 0%
pest or weed control at 500 g/ha [5]: 0%
